According to patent publication US20070185128A1, “Compounds and compositions for treating obesity” (priority 2002, published 2007):

Test system: schedule fed male SPRD rat
Experiment: Assay (I): efficacy on appetite, schedule-fed rat model, food intake (diet consumed)
Type: in vivo
Conditions: for Diet Consumed 1 hr (mean X of 8 rats): 1 hr after dosing; for Diet Consumed 2 hr (mean X of 8 rats): cumulative at 2 hr after dosing; for Diet Consumed 3 hr (mean X of 8 rats): cumulative at 3 hr after dosing
Description: FIG. 1: Effect on food intake in schedule fed (8 h-13 h) male SPRD rat model as described in assay 1. The rats are dosed ip at 08.00 h with vehicle, sibutramine (3 mg/kg) and (S,S)-6-(4-amino-butyl)-1-biphenyl-4-ylmethyl-3-naphthalen-2-ylmethyl-piperazine-2,5-dione (example 11) (1, 3 or 10 mg/kg). Rat chow and water is available from just post dosing, and food intake is measured every hour from dosing to 3 hours post dosing.
The bars indicate the cumulated food intake over time.
Assay (I) Experimental Protocol for Efficacy Testing on Appetite with MC4 Analogues, Using a Schedule—Fed Rat Model.
TAC:SPRD @mol rats or Wistar rats from M&B Breeding and Research Centre A/S, Denmark are used for the experiments. The rats have a bodyweight 200-250 g at the start of experiment. The rats arrive at least 10-14 days before start of experiment with a bodyweight of 180-200 g. Each dose of compound is tested in a group of 8 rats. A vehicle group of 8 rats is included in each set of testing.
When the animals arrive they are housed individually. After a habituating period of 4-7 days with free access to food and water, the schedule feeding is initiated. The rats are allowed to eat from 08 am to 01 pm each day. In the remaining period only access to water is allowed. They are kept on this feeding schedule for 8 days before start of experiment. In this period the animals are handled and dosed in the relevant way (ip, po, sc.) with saline at least 3 times. The experiment is conducted in the rat home cages. Immediately before dosing the rats are randomised to the different treatment groups (n=8) by bodyweight. They are dosed according to bodyweight at 08 am, with a 1 ml/kg solution either, ip, po or sc. The dosing time is recorded for each group. Following dosing the rats are returned to their home cages, where they now have access to food and water. The food consumption is recorded individually, each hour for 3 hours. At the end of the experimental session, the animals are euthanised.
The individual data are recorded in Microsoft excel sheets. Outliers are excluded after using the Grubbs statistical evaluation test for outliers and the result presented graphically by using the GraphPad Prism program.

Compound	Diet Consumed 1 hr (mean X of 8 rats) (1 mg/kg i.p.) [Grams]	Diet Consumed 2 hr (mean X of 8 rats) (1 mg/kg i.p.) [Grams]	Diet Consumed 3 hr (mean X of 8 rats) (1 mg/kg i.p.) [Grams]	Diet Consumed 1 hr (mean X of 8 rats) (3 mg/kg i.p.) [Grams]	Diet Consumed 2 hr (mean X of 8 rats) (3 mg/kg i.p.) [Grams]	Diet Consumed 3 hr (mean X of 8 rats) (3 mg/kg i.p.) [Grams]	Diet Consumed 1 hr (mean X of 8 rats) (10 mg/kg i.p.) [Grams]	Diet Consumed 2 hr (mean X of 8 rats) (10 mg/kg i.p.) [Grams]	Diet Consumed 3 hr (mean X of 8 rats) (10 mg/kg i.p.) [Grams]
NCCCC[C@H]1C(=O)N[C@@H](Cc2ccc3ccccc3c2)C(=O)N1Cc1ccc(-c2ccccc2)cc1 [Example 23, (S,S)-6-(4-Amino-butyl)-1-biphenyl-4-ylmethyl-3-naphthalen-2-ylmethyl-piperazine-2,5-dione]	2.4	6.3	8.4	3.4	7.1	8.5	2.7	5.4	6.3
CC(C)CC(N(C)C)C1(c2ccc(Cl)cc2)CCC1 (stereo not drawn) [Sibutramine, reference compound]	–	–	–	3.5	7.0	9.4	–	–	–
